Assay results as given in patent US8067582B2 (Bristol-Myers Squibb Company, priority 2007, dated 2011).
Read-outs that look alike come from different tables or passages of the source. One block for each compound: values may come before it.

Target: T1, androgen receptor (AR) (Homo sapiens, UniProt P10275)
T1 sequence (P10275 1-920): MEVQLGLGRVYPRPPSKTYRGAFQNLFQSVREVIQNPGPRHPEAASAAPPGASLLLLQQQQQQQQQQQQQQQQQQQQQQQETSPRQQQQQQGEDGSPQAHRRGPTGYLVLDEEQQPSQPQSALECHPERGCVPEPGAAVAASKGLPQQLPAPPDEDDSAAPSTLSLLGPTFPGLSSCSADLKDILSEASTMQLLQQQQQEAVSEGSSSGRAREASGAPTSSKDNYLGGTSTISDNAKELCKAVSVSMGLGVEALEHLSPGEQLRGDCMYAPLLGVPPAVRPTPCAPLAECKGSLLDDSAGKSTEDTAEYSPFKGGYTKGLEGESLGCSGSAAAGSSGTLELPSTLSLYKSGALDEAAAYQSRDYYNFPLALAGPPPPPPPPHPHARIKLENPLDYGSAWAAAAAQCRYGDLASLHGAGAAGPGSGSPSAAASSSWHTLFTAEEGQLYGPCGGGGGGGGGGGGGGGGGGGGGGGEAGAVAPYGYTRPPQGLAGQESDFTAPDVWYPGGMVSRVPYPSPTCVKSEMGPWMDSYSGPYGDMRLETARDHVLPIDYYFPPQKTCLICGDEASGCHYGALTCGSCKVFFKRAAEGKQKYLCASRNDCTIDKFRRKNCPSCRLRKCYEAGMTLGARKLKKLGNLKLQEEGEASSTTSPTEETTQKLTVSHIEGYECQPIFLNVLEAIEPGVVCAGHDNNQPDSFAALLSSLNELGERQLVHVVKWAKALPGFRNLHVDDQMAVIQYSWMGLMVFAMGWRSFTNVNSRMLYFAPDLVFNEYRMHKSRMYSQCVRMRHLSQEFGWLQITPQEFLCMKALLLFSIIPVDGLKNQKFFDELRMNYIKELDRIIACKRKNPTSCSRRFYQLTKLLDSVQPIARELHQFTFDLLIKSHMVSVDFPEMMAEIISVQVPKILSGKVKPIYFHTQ
Test: MDA-MB-453 Androgen Receptor Transactivation Assay (PSA-Luc reporter, 3 nM DHT)
Format: cell-based
Conditions: MDA-MB-453 cells, antagonism in presence of 3 nM DHT, 48 hour incubation
Source text: Compounds can be tested in a cell based transactivation assay used to measure the antagonism of androgen receptor (AR) transcriptional activity. The transactivation assay provides a means of identifying antagonists that inhibit the effects of the native hormone dihydrotestosterone (DHT). […] The pGL3 PSA-Luc reporter plasmid is comprised of the cDNA for the firefly luciferase gene and the upstream promoter sequences containing the androgen response elements (AREs) of the prostate specific antigen (PSA). This plasmid functions as a reporter for the transcription-modulating activity of the AR. In order to detect antagonists, the transactivation assay is conducted in the presence of constant concentration of the natural AR hormone (DHT) to induce a defined reporter signal. Addition of increasing concentrations of the suspected antagonist will decrease the reporter signal (luciferase activity).
MDA-MB-453 and 22 RV1 cells were maintained in DMEM (Cellgro, Cat. #10-014-CM) or RPMI 1640 (Gibco Cat. #11875-085) respectively and supplemented with 10% FBS (Invitrogen/GIBCO Life Science). Cells were bulk transfected in flasks with 1.3 ug/ml pGL3 PSA-Luc plasmid by using the Lipofectamine 2000 Reagent (Invitrogen, Cat. #11668-019) and serum-free Opti-MEM I media (Invitrogen, Cat #31985-070) according to the manufacturer's optimized conditions. Transfection was conducted at 37° C. with 5% CO2 for 16-18 hours. Following transfection, cells are washed, treated with trypsin, counted, and seeded in a 96-well plate at 30,000 cells per well in DMEM containing 10% Charcoal/Dextran Treated Fetal Bovine Serum (Gibco Cat. #11054-020) for MDA-MB-453 cells or RPMI 1640 (Gibco Cat. #110835) containing 10% FBS (Invitrogen/GIBCO Life Science) for 22 RV1 cells.
Following transfection, cells were incubated in the absence (blank) or presence (control) of 3 nM DHT (Sigma, Cat. #A-8380) and in the presence or absence of the standard antiandrogen bicalutamide or test compounds ranging in concentrations from 10^−10 to 10^−5M. Duplicates were used for each sample. The compound dilutions were performed by the Tecan Genesis (Tecan, Triangle Park, N.C.). After a 48 hour incubation, luciferase activity was measured using the Steady-Glo Luciferase Assay System (Promega, Cat. #E2550) according to manufacturer's specifications and luminescence was measured on a Packard TopCount (PerkinElmer). For each luciferase sample reading, the percent control (in absence of compounds) was calculated as: % Control=100×[averagesample−averageblank]/[averagecontrol−averageblank] Data was plotted and the IC50 value was defined as the concentration of compound that inhibited 50% of the luciferase activity for the controls.
Compounds described herein were tested in the AR transactivation assay described immediately above, using MDA-MB-453 cells.

Structure (SMILES): C[C@@]12C[C@H](O)[C@]3(CCO[C@H]4[C@@H]3[C@]1(CO)C(=O)N4c1ccc(C#N)c(C(F)(F)F)c1)O2 [Example 24, 4-((1R,2S,4R,5R,8S,12R)-2-hydroxy-5-(hydroxymethyl)-4-methyl-6-oxo-9,13-dioxa-7-azatetracyclo[6.3.1.1^1,4.0^5,12]tridec-7-yl)-2-(trifluoromethyl)benzonitrile]
- IC50: 5.45 µM

Structure (SMILES): C[C@@]12C[C@H](O)[C@]3(CCO[C@H]4[C@@H]3[C@]1(C(=O)OCc1ccccc1)C(=O)N4c1ccc(C#N)c(C(F)(F)F)c1)O2 [Example 23, Benzyl (1R,2S,4R,5R,8S,12R)-7-(4-cyano-3-(trifluoromethyl)phenyl)-2-hydroxy-4-methyl-6-oxo-9,13-dioxa-7-azatetracyclo[6.3.1.1^1,4.0^5,12]tridecane-5-carboxylate]
- IC50: 1.2 µM

Structure (SMILES): C[C@@]12C[C@@](C)(O)[C@]3(CCO[C@H]4[C@@H]3[C@@H]1C(=O)N4c1ccc(C#N)c(C(F)(F)F)c1)O2 [Example 37, 4-((1R,2R,4R,5S,8S,12R)-2-hydroxy-2,4-dimethyl-6-oxo-9,13-dioxa-7-azatetracyclo[6.3.1.1^1,4.0^5,12]tridec-7-yl)-2-(trifluoromethyl)benzonitrile]
- IC50: 1.16 µM

Structure (SMILES): C[C@@]12O[C@]3(CCO[C@@H]4[C@H]3[C@H]1C(=O)N4c1ccc(C#N)c(C(F)(F)F)c1)C[C@H]2N [Example 13, 4-((1S,3R,4R,5R,8R,12S)-3-amino-4-methyl-6-oxo-9,13-dioxa-7-azatetracyclo[6.3.1.1^1,4.0^5,12]tridec-7-yl)-2-(trifluoromethyl)benzonitrile]
- IC50: > 7.5 µM

Structure (SMILES): C[C@@]12O[C@]3(CCO[C@@H]4[C@H]3[C@H]1C(=O)N4c1ccc(C#N)c(C(F)(F)F)c1)C[C@@H]2O (single isomer, unassigned) [Example 2]
- IC50: 11 µM

Structure (SMILES): C[C@@]12C[C@H](O)[C@]3(CO[C@H]4[C@@H]3[C@@H]1C(=O)N4c1ccc(C#N)c(C(F)(F)F)c1)O2 [Example 38, 4-((1S,4S,7S,8R,10S,11R)-10-Hydroxy-8-methyl-6-oxo-3,12-dioxa-5-azatetracyclo[5.3.1.1^1,8.0^4,11]dodec-5-yl)-2-(trifluoromethyl)benzonitrile]
- IC50: 1.09 µM

Structure (SMILES): N#Cc1ccc(N2C(=O)[C@@H]3[C@@H]4[C@H]2OCC[C@]42O[C@H]3C[C@H]2O)cc1C(F)(F)F (single isomer, unassigned) [Example 55]
- IC50: 10.8 µM

Structure (SMILES): C[C@]12O[C@@]3(CCO[C@H]4[C@@H]3[C@@H]1C(=O)N4c1ccc(C#N)c(F)c1)C[C@H]2O [Example 137, 2-Fluoro-4-((1S,3R,4S,5S,8S,12R)-3-hydroxy-4-methyl-6-oxo-9,13-dioxa-7-azatetracyclo[6.3.1.1^1,4.0^5,12]tridec-7-yl)benzonitrile]
- IC50 (read-out: IC50): 6.24 µM

- IC50 (read-out: IC50): 1.72 µM
Structure (SMILES): C#Cc1cc(N2C(=O)[C@H]3[C@H]4[C@@H]2OCC[C@]42C[C@@H](O)[C@@]3(C)O2)ccc1Cl [Example 145, (1S,3R,4S,5S,8S,12R)-7-(4-chloro-3-ethynylphenyl)-3-hydroxy-4-methyl-9,13-dioxa-7-azatetracyclo[6.3.1.1^1,4.0^5,12]tridecan-6-one]

Structure (SMILES): N#Cc1ccc(N2C(=O)[C@H]3[C@H]4O[C@]5(CCO[C@@H]2[C@@H]35)C[C@@H]4O)cc1C(F)(F)F (single isomer, unassigned) [Example 57]
- IC50: ≥ 7.5 µM

Structure (SMILES): CCNC(=O)[C@]12C(=O)N(c3ccc(C#N)c(C(F)(F)F)c3)[C@@H]3OCC[C@@]4(C[C@H](O)[C@]1(C)O4)[C@@H]32 (single isomer, unassigned) [Example 22]
- IC50: > 7.5 µM

Structure (SMILES): CC[C@@]12O[C@]3(CCO[C@@H]4[C@H]3[C@H]1C(=O)N4c1ccc(C#N)c(C(F)(F)F)c1)C[C@@H]2O (single isomer, unassigned) [Example 61]
- IC50: ≥ 7.5 µM

Structure (SMILES): C[C@@]12O[C@]3(CCO[C@@H]4[C@H]3[C@H]1C(=O)N4c1ccc(C#N)c(C(F)(F)F)c1)C[C@H]2N=[N+]=[N-] [Example 12, 4-((1S,3R,4R,5R,8R,12S)-3-azido-4-methyl-6-oxo-9,13-dioxa-7-azatetracyclo[6.3.1.1^1,4.0^5,12]tridec-7-yl)-2-(trifluoromethyl)benzonitrile]
- IC50: > 7.5 µM

Structure (SMILES): C[C@]12C[C@@H](O)[C@@]3(CCO[C@@H]4[C@H]3[C@H]1C(=O)N4c1ccc(C#N)c(Br)c1)O2 [Example 240, 2-Bromo-4-((1S,2R,4S,5R,8R,12S)-2-hydroxy-4-methyl-6-oxo-9,13-dioxa-7-azatetracyclo[6.3.1.1^1,4.0^5,12]tridec-7-yl)benzonitrile]
- IC50 (read-out: IC50): 6.38 µM

- IC50 (read-out: IC50): 10.5 µM
Structure (SMILES): C[C@@]12C[C@H](O)[C@]3(CCO[C@H]4[C@@H]3[C@@H]1C(=O)N4c1ccc(F)c(Cl)c1)O2 [Example 15, (1R,2S,4R,5S,8S,12R)-7-(3-chloro-4-fluorophenyl)-2-hydroxy-4-methyl-9,13-dioxa-7-azatetracyclo[6.3.1.1^1,4.0^5,12]tridecan-6-one]

Structure (SMILES): Cc1c(N2C(=O)[C@H]3[C@H]4[C@@H]2OCC[C@]42C[C@@H](O)[C@@]3(C)O2)ccc(C#N)c1C(F)(F)F [Example 142, 4-((1S,3R,4S,5S,8S,12R)-3-hydroxy-4-methyl-6-oxo-9,13-dioxa-7-azatetracyclo[6.3.1.1^1,4.0^5,12]tridec-7-yl)-3-methyl-2-(trifluoromethyl)benzonitrile]
- IC50: 0.95 µM

- IC50 (read-out: IC50): 1.1 µM
Structure (SMILES): C[C@]12O[C@@]3(CCO[C@H]4[C@@H]3[C@@H]1C(=O)N4c1cc(Cl)cc(Cl)c1)C[C@H]2O [Example 149, (1S,3R,4S,5S,8S,12R)-7-(3,5-dichlorophenyl)-3-hydroxy-4-methyl-9,13-dioxa-7-azatetracyclo[6.3.1.1^1,4.0^5,12]tridecan-6-one]

Structure (SMILES): C[C@@]12C[C@@H](NS(=O)(=O)C3CC3)[C@]3(CCO[C@H]4[C@@H]3[C@@H]1C(=O)N4c1ccc(C#N)c(C(F)(F)F)c1)O2 [Example 196, N-((1R,2R,4R,5S,8S,12R)-7-(4-Cyano-3-(trifluoromethyl)phenyl)-4-methyl-6-oxo-9,13-dioxa-7-azatetracyclo[6.3.1.1^1,4.0^5,12]tridec-2-yl)cyclopropanesulfonamide]
- IC50: 0.046 µM

Structure (SMILES): C[C@]12CC[C@@]3(CCO[C@@H]4[C@H]3[C@H]1C(=O)N4c1ccc(C#N)c(C(F)(F)F)c1)O2 [Example 51, 4-((1S,4S,5R,8R,12S)-4-methyl-6-oxo-9,13-dioxa-7-azatetracyclo[6.3.1.1^1,4.0^5,12]tridec-7-yl)-2-(trifluoromethyl)benzonitrile]
- IC50: 1.81 µM

Structure (SMILES): C[C@]12O[C@@]3(CCO[C@@]4(C)[C@@H]3[C@@H]1C(=O)N4c1ccc(C#N)c(C(F)(F)F)c1)C[C@H]2O (single isomer, unassigned) [Example 25]
- IC50: > 7.5 µM
